In paper PMC9213561, “3-nitroimidazo[1,2-b]pyridazine as a novel scaffold for antiparasitics with sub-nanomolar anti-Giardia lamblia activity” (International Journal for Parasitology: Drugs and Drug …, 2022):
Structures can show the parent of a compound that is named as a salt. Where two headings read alike, the source gives them in different places.

Key:
[1] = tested on: GlPDE; design: method as in Blaazer et al., 2018; Kunz et al., 2017b; conditions: Fig. 2; ref Blaazer et al., 2018; Kunz et al., 2017b; cited from earlier work
[2] = tested on: G. lamblia; design: method as in Blaazer et al., 2018; Kunz et al., 2017b; conditions: Fig. 2; ref Blaazer et al., 2018; Kunz et al., 2017b; cited from earlier work
[3] = tested on: TbrPDEB1; design: method as in Blaazer et al., 2018; Kunz et al., 2017b; conditions: Fig. 2; ref Blaazer et al., 2018; Kunz et al., 2017b; cited from earlier work
[4] = tested on: T.b. brucei; design: method as in Blaazer et al., 2018; Kunz et al., 2017b; conditions: Fig. 2; ref Blaazer et al., 2018; Kunz et al., 2017b; cited from earlier work
[5] = tested on: G. lamblia trophozoites (WBC6); assay: Growth inhibition of G. lamblia trophozoites (WBC6), resazurin viability read-out; format: cell-based, Giardia lamblia; conditions: for IC50: Giardia duodenalis; for fold decrease of anti-Giardia activity: compared with 18; for fold higher anti-Giardia activity than metronidazole: versus metronidazole IC50 = 0.8 μM
Protocol: (§1) G. lamblia trophozoites (WBC6) were seeded into 96-well-plates in 0.2 mL Keister-medium containing 10^3 trophozoites per well in the presence of the compounds dissolved in dimethyl sulfoxide (DMSO, final concentration 0.25%) or with DMSO as a solvent control and incubated for 72 h at 37 °C in an anaerobic chamber (80% N2, 10% H2, 10% CO2). Then, plates were centrifuged (2 min, 1000 rpm), medium was removed, and cells were washed once with PBS containing 1 g/L glucose. Then, PBS-glucose containing 10 mg/L resazurin was added, and plates were incubated for up to 5 h at 37 °C. Fluorescence reading (ex 530 nm/em 590 nm) was performed at various time points, and the linear increase of fluorescence was used as a marker for cell viability. IC50 values were calculated using the logit-log algorithm and are given as mean values with 95%-confidence intervals ([Müller et al., 2020]; [Müller and Hemphill, 2013]; [Müller and Müller, 2019]). The assays for growth inhibition of T. b. brucei, T. cruzi, L. infantum, P. falciparum and MRC-5 (human lung fibroblasts MRC-5SV40) were previously described ([Blaazer et al., 2014]). PDE activity was determined exactly as described ([de Heuvel et al., 2021]; [Kunz et al., 2005], [2017b]). All assays were carried out in triplicates and no more than 20% substrate was hydrolyzed in all reactions. Compounds were dissolved in DMSO and the final DMSO concentration was 1% in all reaction mixes. Control reactions with DMSO alone were always included. Data were analyzed using the GraphPad Prism software package (v7.0, GraphPad, San Diego).
Figure S67. Representative drug susceptibility curves of G. lamblia WBC6. Trophozoites were grown anaerobically in the presence of various concentrations of 17 (red), 29 (blue) and the reference compound metronidazole (MET, black). After 72 h, growth of cells was monitored by a cell viability assay based on the reduction of resazurin to a pink fluorescent product. Measured fluorescence units were normalized to the DMSO control. Data points and error bars represent mean and standard error of 4 replicates.

[6] = tested on: MRC-5 (human lung fibroblasts MRC-5SV40); assay: Cytotoxicity on MRC-5 cells; format: cell-based; conditions: MRC5, mean ± standard deviation, n ≥ 2, read-out: IC50 (nM) MRC-5
Protocol: as §1, with “[…]-medium” for “Keister-medium”, “([[…],” for “([Müller et al., 2020]; [Müller and Hemphill, 2013]; [Müller and Müller,”

[7] = molecular target: GlPDE (aa588-1371) (Giardia lamblia, UniProt A0A644EZ75); assay: GlPDE activity inhibition; format: biochemical; conditions: for Ki: mean ± standard deviation, n ≥ 2
Protocol: as §1
Figure S69. Representative dose-response curve of 11 against GlPDE (aa588-1371) enzyme (substrate concentration: 1 μM).

[8] = molecular target: hPDE4B (Homo sapiens, UniProt Q07343); assay: Human PDE4 activity inhibition; format: biochemical; conditions: for Ki: mean ± standard deviation, n ≥ 2
Protocol: as §1

[9] = tested on: Trypanosoma brucei brucei; assay: Growth inhibition of T. b. brucei; format: cell-based; conditions: mean ± standard deviation, n ≥ 2
Protocol: as §1

[10] = tested on: Trypanosoma cruzi; assay: Growth inhibition of T. cruzi; format: cell-based; conditions: mean ± standard deviation, n ≥ 2
Protocol: as §1

[11] = tested on: Leishmania infantum; assay: Growth inhibition of L. infantum; format: cell-based; conditions: mean ± standard deviation, n ≥ 2
Protocol: as §1

[12] = tested on: Plasmodium falciparum; assay: Growth inhibition of P. falciparum; format: cell-based; conditions: mean ± standard deviation, n ≥ 2, read-out: IC50 (µM) P.f.
Protocol: as §1, with “[…]-medium” for “Keister-medium”, “([[…],” for “([Müller et al., 2020]; [Müller and Hemphill, 2013]; [Müller and Müller,”

[13] = WBC6 trophozoites, 72 h, anaerobic, mean ± standard error (95% CI, logit-log), quadruplicates, read-out: IC50 (nM) G.l.

hPDE4B, sequence (Q07343 330-659 limits assumed): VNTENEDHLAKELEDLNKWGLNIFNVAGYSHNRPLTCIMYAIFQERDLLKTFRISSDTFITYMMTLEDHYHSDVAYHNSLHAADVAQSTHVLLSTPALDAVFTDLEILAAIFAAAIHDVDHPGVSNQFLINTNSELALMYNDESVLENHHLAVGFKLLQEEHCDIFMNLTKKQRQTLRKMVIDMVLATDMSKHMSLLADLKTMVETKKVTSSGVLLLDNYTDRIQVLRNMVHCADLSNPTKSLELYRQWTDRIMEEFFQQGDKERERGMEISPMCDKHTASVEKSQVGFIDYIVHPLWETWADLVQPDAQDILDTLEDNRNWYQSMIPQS

Compound	IC50 [5, 13]	Ki [7]	Ki [8]	IC50 [9]	IC50 [10]	IC50 [11]	IC50 [12]	IC50 [6]	fold higher anti-Giardia activity than metronidazole [5]	other results
COc1ccc(C2=NN(C3CCCCCC3)C(=O)[C@H]3CC=CC[C@@H]23)cc1OCCCCOc1ccc(-c2nn[nH]n2)cc1 [Compound 9]	–	–	–	–	–	–	–	–	–	IC50 [1]: 0.8 µM; IC50 [2]: 6.9 µM; IC50 [3]: […]; IC50 [4]: 0.08 µM
COc1ccc(C2=NN(C3CCN(S(=O)(=O)c4cccc5cccnc45)CC3)C(=O)[C@@H]3CC=CC[C@H]23)cc1OC [Compound 10]	–	–	–	–	–	–	–	–	–	IC50 [1]: 3 µM; IC50 [2]: 1.5 µM; IC50 [3]: 0.03 µM; IC50 [4]: 0.42 µM
COc1ccc(C2=NN(C3CCN(c4ccc5ncc([N+](=O)[O-])n5n4)CC3)C(=O)[C@H]3CC=CC[C@@H]23)cc1OCc1ccccn1 (relative stereo) [Compound 17, cis-4-(4-Methoxy-3-(pyridin-2-ylmethoxy)phenyl)-2-(1-(3-nitroimidazo[1,2-b]pyridazin-6-yl)piperidin-4-yl)-4a,5,8,8a-tetrahydrophthalazin-1(2H)-one]	0.5 ± 0.1 nM	–	–	4.92 ± 1.6 µM	2.1 ± 0.1 µM	11.8 ± 7.5 µM	2.3 ± 1.4 µM	> 64000 nM	> 1,000 fold	–
COc1ccc(C2=NN(C3CCN(c4ccc5ncc([N+](=O)[O-])n5n4)CC3)C(=O)[C@@H]3CC=CC[C@H]23)cc1OC [Compound 11, (4aS,8aR)-4-(3,4-Dimethoxyphenyl)-2-(1-(3-nitroimidazo[1,2-b]pyridazin-6-yl)piperidin-4-yl)-4a,5,8,8a-tetrahydrophthalazin-1(2H)-one]	0.5 ± 0.2 nM	0.5 ± 0.3 µM	0.00016 ± 2e-05 µM	1 ± 0.7 µM	5.9 ± 4.5 µM	27.4 ± 25.3 µM	6.3 ± 0.4 µM	> 64000 nM	> 1,000 fold	fold more active against human PDE4 than against GlPDE ([8]; Ki hPDE4 versus Ki GlPDE): 3,000 fold
O=[N+]([O-])c1cnc2ccc(N3CCC(N4CCCC4)CC3)nn12 [Compound 25, 3-Nitro-6-(4-(pyrrolidin-1-yl)piperidin-1-yl)imidazo[1,2-b]pyridazine formate]	5.8 ± 0.9 nM	–	–	> 64 µM	39.9 ± 3.7 µM	> 64 µM	> 64 µM	> 64000 nM	–	–

Now from value to compound, other results behind:

IC50 [5, 13]	Ki [7]	Ki [8]	IC50 [9]	IC50 [10]	IC50 [11]	IC50 [12]	Compound	IC50 [6]	fold higher anti-Giardia activity than metronidazole [5]	other results
0.2 ± 0.1 nM	> 10 µM	0.0032 ± 0.0004 µM	> 64 µM	50.9 ± 4.7 µM	26.4 ± 8.6 µM	33.8 ± 37 µM	COc1ccc(C2=NN(C3CCN(c4ccc5ncc([N+](=O)[O-])n5n4)CC3)C(=O)CC2)cc1OC [Compound 18, 6-(3,4-Dimethoxyphenyl)-2-(1-(3-nitroimidazo[1,2-b]pyridazin-6-yl)piperidin-4-yl)-4,5-dihydropyridazin-3(2H)-one]	> 64000 nM	–	IC50 ([5]; text value in pM, read-out: anti-Giardia IC50 on growth inhibition): ~0.2 nM; fold increase in anti-Giardia potency ([5]; compared with 11 (cyclohexene ring removed)): 2.5 fold; GlPDE Ki over IC50 for Giardia growth inhibition [7]: over 50,000 fold; fold decrease of hPDE4 affinity ([8]; compared with 11): 20 fold
19 ± 3.2 nM	> 1000 µM	0.2 ± 0.05 µM	22.2 ± 15.9 µM	5.4 ± 4.1 µM	28.9 ± 31 µM	7.2 ± 0.4 µM	COc1ccc(C2=NN(C3CCN(c4ccc5ncc([N+](=O)[O-])n5n4)CC3)C(=O)CC2)cc1Cl [Compound 19, 6-(3-Chloro-4-methoxyphenyl)-2-(1-(3-nitroimidazo[1,2-b]pyridazin-6-yl)piperidin-4-yl)-4,5-dihydropyridazin-3(2H)-one]	> 64000 nM	40 fold	fold decrease of anti-Giardia activity [5]: 100 fold; fold decrease of affinity for hPDE4B ([8]; compared to 18): 60 fold
930 ± 100 nM	> 1000 µM	0.005 ± 0.001 µM	> 64 µM	> 64 µM	> 64 µM	> 64 µM	COc1ccc(C2=NN(C3CCN(c4ccc5nccn5n4)CC3)C(=O)CC2)cc1OC [Compound 20, 6-(3,4-Dimethoxyphenyl)-2-(1-(imidazo[1,2-b]pyridazin-6-yl)piperidin-4-yl)-4,5-dihydropyridazin-3(2H)-one]	> 64000 nM	–	fold decrease of anti-Giardia activity [5]: 4,500 fold; GlPDE inhibition (in words) [7]: no GlPDE inhibition
